Reference: patent publication US8471005B2 (Cephalon, Inc., priority 2008, dated 2013)
Where two headings read alike, the source gives them in different places.

What was measured:
JAK2 = molecular target: T1, JAK2 (Homo sapiens, UniProt O60674); experiment: Recombinant Human JAK2 Kinase Assay (TRF); assay type: biochemical; conditions: read-out: JAK2 Potency
T1 construct: host or cells: baculovirus expression system
Outline: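 Baculovirus-expressed JAK2 (15 ng/ml) phosphorylated a biotinylated 15-mer peptide captured on Neutravidin, in 20 mM HEPES pH 7.2, 0.2 μM ATP, 1 mM MnCl2, 0.1% BSA, 2.5% DMSO final, 20 min at room temperature. Phosphoproduct detected by time-resolved fluorescence with Eu-N1-labelled PY100 antibody.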

ALK = molecular target: T2, ALK (Homo sapiens, UniProt Q9UM73); experiment: ALK Kinase Assay (ELISA/TRF, PLC-γ substrate); assay type: biochemical; conditions: read-out: ALK Potency
T2 construct: host or cells: baculovirus expression system
Outline: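 Time-resolved fluorescence ELISA using Eu-N1 PT66 antibody to detect phosphorylated PLC-γ (coated at 10 μg/mL). Enzyme at 30 ng/ml ALK; 15 min incubation, 37° C.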

[1] = JAK2 kinase inhibition, 0.2 μM ATP
[2] = ALK kinase inhibition, 1 μM ATP

T2 sequence (Q9UM73 19-1620): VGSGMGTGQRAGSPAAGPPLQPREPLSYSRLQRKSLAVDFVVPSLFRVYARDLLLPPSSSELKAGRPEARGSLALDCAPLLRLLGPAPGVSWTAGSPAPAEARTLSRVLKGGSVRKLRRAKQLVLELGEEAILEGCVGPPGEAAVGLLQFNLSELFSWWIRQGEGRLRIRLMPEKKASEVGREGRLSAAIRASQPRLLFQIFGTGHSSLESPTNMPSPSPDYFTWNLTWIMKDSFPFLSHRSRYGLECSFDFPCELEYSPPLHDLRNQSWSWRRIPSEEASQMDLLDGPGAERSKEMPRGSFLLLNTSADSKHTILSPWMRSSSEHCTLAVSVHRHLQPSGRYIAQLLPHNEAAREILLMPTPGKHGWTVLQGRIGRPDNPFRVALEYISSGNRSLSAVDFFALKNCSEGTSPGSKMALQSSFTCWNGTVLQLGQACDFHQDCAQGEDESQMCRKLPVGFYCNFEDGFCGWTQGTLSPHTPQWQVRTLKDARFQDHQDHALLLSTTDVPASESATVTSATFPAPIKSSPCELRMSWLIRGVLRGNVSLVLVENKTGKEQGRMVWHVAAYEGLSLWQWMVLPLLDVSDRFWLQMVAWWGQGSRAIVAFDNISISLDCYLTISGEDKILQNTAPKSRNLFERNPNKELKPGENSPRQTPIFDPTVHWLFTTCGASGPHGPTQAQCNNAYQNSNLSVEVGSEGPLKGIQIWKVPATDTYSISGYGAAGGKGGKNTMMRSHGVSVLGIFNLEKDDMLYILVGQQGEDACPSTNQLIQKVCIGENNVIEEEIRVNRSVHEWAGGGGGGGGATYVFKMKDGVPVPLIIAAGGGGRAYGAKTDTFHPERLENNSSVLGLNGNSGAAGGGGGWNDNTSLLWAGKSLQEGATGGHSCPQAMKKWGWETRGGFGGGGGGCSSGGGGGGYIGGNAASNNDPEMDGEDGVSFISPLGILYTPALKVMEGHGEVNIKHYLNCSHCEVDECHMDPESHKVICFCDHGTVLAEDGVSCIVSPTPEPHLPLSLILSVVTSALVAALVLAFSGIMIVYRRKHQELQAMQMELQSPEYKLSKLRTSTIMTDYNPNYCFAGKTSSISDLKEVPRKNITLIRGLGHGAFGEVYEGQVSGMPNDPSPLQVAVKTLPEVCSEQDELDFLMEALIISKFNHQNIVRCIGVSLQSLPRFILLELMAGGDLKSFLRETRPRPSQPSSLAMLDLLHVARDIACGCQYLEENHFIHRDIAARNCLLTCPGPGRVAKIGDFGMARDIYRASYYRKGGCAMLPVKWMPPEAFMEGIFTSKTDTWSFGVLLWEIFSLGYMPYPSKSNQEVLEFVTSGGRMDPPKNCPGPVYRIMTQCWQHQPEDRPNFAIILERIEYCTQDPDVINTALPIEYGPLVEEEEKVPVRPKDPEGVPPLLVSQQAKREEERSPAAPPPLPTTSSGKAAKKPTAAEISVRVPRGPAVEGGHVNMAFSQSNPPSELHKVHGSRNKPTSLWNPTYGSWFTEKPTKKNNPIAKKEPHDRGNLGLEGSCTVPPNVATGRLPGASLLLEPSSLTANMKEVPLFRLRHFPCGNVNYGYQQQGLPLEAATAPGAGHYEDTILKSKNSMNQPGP
T1 sequence (O60674 whole entry): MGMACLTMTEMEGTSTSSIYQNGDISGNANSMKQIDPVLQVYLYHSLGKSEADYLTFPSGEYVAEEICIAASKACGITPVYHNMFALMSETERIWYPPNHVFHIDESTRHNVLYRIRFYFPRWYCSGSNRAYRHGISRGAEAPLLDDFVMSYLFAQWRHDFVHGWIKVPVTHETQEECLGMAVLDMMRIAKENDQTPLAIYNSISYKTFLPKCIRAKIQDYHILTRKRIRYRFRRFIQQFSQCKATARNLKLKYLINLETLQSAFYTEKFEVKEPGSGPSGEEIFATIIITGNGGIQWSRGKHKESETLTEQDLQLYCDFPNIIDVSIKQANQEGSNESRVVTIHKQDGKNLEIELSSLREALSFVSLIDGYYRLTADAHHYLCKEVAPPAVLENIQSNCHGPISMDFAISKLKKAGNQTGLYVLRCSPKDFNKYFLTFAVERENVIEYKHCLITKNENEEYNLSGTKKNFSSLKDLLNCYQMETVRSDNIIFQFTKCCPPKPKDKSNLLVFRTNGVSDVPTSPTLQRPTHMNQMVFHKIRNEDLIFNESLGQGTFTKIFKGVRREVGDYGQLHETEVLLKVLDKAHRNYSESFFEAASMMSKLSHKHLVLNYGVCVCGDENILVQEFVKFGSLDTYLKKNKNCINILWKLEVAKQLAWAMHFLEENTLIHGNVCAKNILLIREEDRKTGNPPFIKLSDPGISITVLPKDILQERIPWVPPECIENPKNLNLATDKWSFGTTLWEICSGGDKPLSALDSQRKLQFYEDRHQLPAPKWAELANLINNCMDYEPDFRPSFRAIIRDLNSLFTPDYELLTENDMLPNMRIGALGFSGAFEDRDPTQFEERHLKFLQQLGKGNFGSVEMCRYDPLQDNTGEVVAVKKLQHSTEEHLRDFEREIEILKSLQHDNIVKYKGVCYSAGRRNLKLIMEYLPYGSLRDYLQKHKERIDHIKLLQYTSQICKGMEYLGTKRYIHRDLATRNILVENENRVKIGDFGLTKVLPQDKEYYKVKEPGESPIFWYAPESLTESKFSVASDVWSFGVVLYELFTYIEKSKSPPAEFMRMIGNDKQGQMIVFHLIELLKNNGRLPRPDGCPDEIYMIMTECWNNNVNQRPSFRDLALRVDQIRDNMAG

SMILES | IC50 (JAK2; [1]) | IC50 (ALK; [2]) | IC50 (JAK2; JAK2 Kinase Inhibition) | IC50 (ALK; ALK Kinase Inhibition)
CC(C)(C)NS(=O)(=O)c1cccc(-c2ccc3cnc(Nc4ccc(=O)[nH]c4)nn23)c1 [Example 590, N-tert-Butyl-3-[2-(6-oxo-1,6-dihydro-pyridin-3-ylamino)-pyrrolo[2,1-f][1,2,4]triazin-7-yl]-benzenesulfonamide] | < 0.1 µM | 1 to 10 µM |  | 
c1cncc(-c2ccc3cnc(Nc4cc[nH]n4)nn23)c1 [Example 124, (1H-Pyrazol-3-yl)-(7-pyridin-3-yl-pyrrolo[2,1-f][1,2,4]triazin-2-yl)-amine] |  |  | < 0.1 µM | 1 to 10 µM
Clc1cccc(-c2ccc3cnc(Nc4ccc(N5CCCCC5)cc4)nn23)c1 [Example 49, [7-(3-Chloro-phenyl)-pyrrolo[2,1-f][1,2,4]triazin-2-yl]-(4-piperidin-1-yl-phenyl)-amine] |  |  | < 0.1 µM | > 10 µM
CS(=O)(=O)c1cccc(-c2ccc3cnc(N4CCC(Oc5cccc(N)c5)CC4)nn23)c1 [Example 563, 3-{1-[7-(3-Methanesulfonyl-phenyl)-pyrrolo[2,1-f][1,2,4]triazin-2-yl]-piperdin-4-yloxy}-phenylamine] | 1 to 10 µM | > 10 µM |  | 
COc1cc(N2CCC(NCCO)CC2)ccc1Nc1ncc2ccc(-c3ccccc3OC)n2n1 [Example 797, 2-(1-{3-Methoxy-4-[7-(2-methoxy-phenyl)-pyrrolo[2,1-f][1,2,4]triazin-2-ylamino]-phenyl}-piperidin-4-ylamino)-ethanol] | < 0.1 µM | < 0.1 µM |  | 
COc1cc2c(cc1Nc1ncc3ccc(-c4ccccc4OC)n3n1)CN(C)C2 [Example 816, (6-Methoxy-2-methyl-2,3-dihydro-1H-isoindol-5-yl)-[7-(2-methoxy-phenyl)-pyrrolo[2,1-f][1,2,4]triazin-2-yl]-amine] | < 0.1 µM | < 0.1 µM |  | 
CN1CCN(C2CCCN(c3ccc(Nc4ncc5ccc(-c6ccc(S(C)(=O)=O)cc6)n5n4)cc3)C2)CC1 (centres unmarked) [Example 351, [7-(4-Methanesulfonyl-phenyl)-pyrrolo[2,1-f][1,2,4]triazin-2-yl]-{4-[3-(4-methyl-piperazin-1-yl)-piperidin-1-yl]-phenyl}-amine] |  |  | < 0.1 µM | 0.1 to 1 µM
c1cc2cnc(Nc3ccc(N4CCOCC4)cc3)nn2c1 [Example 50, (4-Morpholin-4-yl-phenyl)-pyrrolo[2,1-f][1,2,4]triazin-2-yl-amine] |  |  | < 0.1 µM | > 10 µM
CC(C)(C)NS(=O)(=O)c1cccc(-c2ccc3cnc(Nc4ccc(OCCN5CCCC5)cc4)nn23)c1 [Example 118, N-tert-Butyl-3-{2-[4-(2-pyrrolidin-1-yl-ethoxy)-phenylamino]-pyrrolo[2,1-f][1,2,4]triazin-7-yl}-benzenesulfonamide] |  |  | < 0.1 µM | 0.1 to 1 µM
COc1cc(N2CCC(N3CCOCC3)CC2)c(C)cc1Nc1ncc2ccc(-c3ccccc3OC)n2n1 [Example 539] | < 0.1 µM | < 0.1 µM |  | 
COc1cc(-c2cccnc2)ccc1Nc1ncc2ccc(-c3ccccc3N(C)S(C)(=O)=O)n2n1 [Example 808, N-{2-[2-(2-Methoxy-4-pyridin-3-yl-phenylamino)-pyrrolo[2,1-f][1,2,4]triazin-7-yl]-phenyl}-N-methyl-methanesulfonamide] | > 10 µM | 0.1 to 1 µM |  | 
CN1CCOCc2cc(Nc3ncc4ccc(-c5ccccc5N(C)S(C)(=O)=O)n4n3)ccc21 [Example 616, N-Methyl-N-{2-[2-(1-methyl-1,2,3,5-tetrahydro-benzo[e][1,4]oxazepin-7-ylamino)-pyrrolo[2,1-f][1,2,4]triazin-7-yl]-phenyl}-methanesulfonamide] | < 0.1 µM | 0.1 to 1 µM |  | 
COc1ccc(-c2ccc3cnc(Nc4ccc5c(c4)COCCN5C)nn23)cn1 [Example 637, [7-(6-Methoxy-pyridin-3-yl)-pyrrolo[2,1-f][1,2,4]triazin-2-yl]-(1-methyl-1,2,3,5-tetrahydro-benzo[e][1,4]oxazepin-7-yl)-amine] | < 0.1 µM | 1 to 10 µM |  | 
COc1ccccc1-c1ccc2cnc(Nc3ccc(N4CCOCC4)c(F)c3)nn12 [Example 186, (3-Fluoro-4-morpholin-4-yl-phenyl)-[7-(2-methoxy-phenyl)-pyrrolo[2,1-f][1,2,4]triazin-2-yl]-amine] |  |  | < 0.1 µM | 0.1 to 1 µM

The remaining lines, values ahead:

IC50 (JAK2; [1]) | IC50 (ALK; [2]) | IC50 (JAK2; JAK2 Kinase Inhibition) | IC50 (ALK; ALK Kinase Inhibition) | SMILES
< 0.1 µM | < 0.1 µM |  |  | COc1cc2c(cc1Nc1ncc3ccc(-c4ccccc4OC)n3n1)CN(C1CCN(C)CC1)C2 [Example 852, [6-Methoxy-2-(1-methyl-piperidin-4-yl)-2,3-dihydro-1H-isoindol-5-yl]-[7-(2-methoxy-phenyl)-pyrrolo[2,1-f][1,2,4]triazin-2-yl]-amine]
0.1 to 1 µM | < 0.1 µM |  |  | CCN(c1ccccc1-c1ccc2cnc(Nc3ccc(C4CCN(C[C@H](O)CO)CC4)cc3OC)nn12)S(C)(=O)=O [Example 872, N-[2-(2-{4-[1-((S)-2,3-Dihydroxy-propyl)-piperidin-4-yl]-2-methoxy-phenylamino}-pyrrolo[2,1-f][1,2,4]triazin-7-yl)-phenyl]-N-ethyl-methanesulfonamide]
 |  | < 0.1 µM | 0.1 to 1 µM | O=S1(=O)CCCN1c1cccc(-c2ccc3cnc(Nc4ccc5c(c4)CCC(N4CCOCC4)CC5)nn23)c1 (centres unmarked) [Example 1507, 7-[3-(1,1-Dioxido-1,2-thiazolidin-2-yl)phenyl]-N-[7-(morpholin-4-yl)-6,7,8,9-tetrahydro-5H-benzo[7]annulen-2-yl]pyrrolo[2,1-f][1,2,4]triazin-2-amine]
< 0.1 µM | 1 to 10 µM |  |  | CC(=O)N1CCCC(C)(C)c2ccc(Nc3ncc4ccc(-c5cccc(NS(C)(=O)=O)c5)n4n3)cc21 [Example 1365, N-{3-[2-(1-Acetyl-5,5-dimethyl-2,3,4,5-tetrahydro-1H-benzo[b]azepin-8-ylamino)-pyrrolo[2,1-f][1,2,4]triazin-7-yl]-phenyl}-methanesulfonamide]
< 0.1 µM | 0.1 to 1 µM |  |  | COc1ccccc1-c1ccc2cnc(Nc3ccc(N4CCN(C)CC4)nc3)nn12 [Example 1108, [7-(2-Methoxy-phenyl)-pyrrolo[2,1-f][1,2,4]triazin-2-yl]-[6-(4-methyl-piperazin-1-yl)-pyridin-3-yl]-amine]
0.1 to 1 µM | < 0.1 µM |  |  | COc1cc(OC2CCN(C)CC2)ccc1Nc1ncc2ccc(-c3ccccc3N(C)S(C)(=O)=O)n2n1 [Example 999, N-(2-{2-[2-Methoxy-4-(1-methyl-piperidin-4-yloxy)-phenylamino]-pyrrolo[2,1-f][1,2,4]triazin-7-yl}-phenyl)-N-methyl-methanesulfonamide]
< 0.1 µM | < 0.1 µM |  |  | Cc1cc(Nc2ncc3ccc(-c4cccc(S(C)(=O)=O)c4)n3n2)ccc1C1CCN(CC(N)=O)CC1 [Example 948, 2-(4-{4-[7-(3-Methanesulfonyl-phenyl)-pyrrolo[2,1-f][1,2,4]triazin-2-ylamino]-2-methyl-phenyl}-piperidin-1-yl)-acetamide]
< 0.1 µM | 1 to 10 µM |  |  | CN(c1ccccc1-c1ccc2cnc(Nc3cnn(CCN4CCOCC4)c3)nn12)S(C)(=O)=O [Example 1193, N-Methyl-N-(2-{2-[1-(2-morpholin-4-yl-ethyl)-1H-pyrazol-4-ylamino]-pyrrolo[2,1-f][1,2,4]triazin-7-yl}-phenyl)-methanesulfonamide]
